# From PubChem BioAssay (NCI)
#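 A five-concentration, 48-hour dose response in 96-well plates underlies each endpoint, interpolated linearly between surrounding concentrations. GI50: concentration for 50% inhibition of growth. TGI is the concentration that stops growth completely.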
# Columns and labels:
# Assay in all cases: DTP human tumour cell line panel, 48 h
# 786-0 renal = test system: 786-0 renal
# A498 renal = test system: A498 renal
# A549 NSCLC = test system: A549 NSCLC
# ACHN renal = test system: ACHN renal
# BT-549 breast = test system: BT-549 breast
# CAKI-1 renal = test system: CAKI-1 renal
# CCRF-CEM leukemia = test system: CCRF-CEM leukemia
# COLO 205 colon = test system: COLO 205 colon
# DU-145 prostate = test system: DU-145 prostate
# EKVX NSCLC = test system: EKVX NSCLC
# HCC-2998 colon = test system: HCC-2998 colon
# HCT-116 colon = test system: HCT-116 colon
# HCT-15 colon = test system: HCT-15 colon
# HL-60(TB) leukemia = test system: HL-60(TB) leukemia
# HOP-62 NSCLC = test system: HOP-62 NSCLC
# HOP-92 NSCLC = test system: HOP-92 NSCLC
# HS 578T breast = test system: HS 578T breast
# HT29 colon = test system: HT29 colon
# IGROV1 ovarian = test system: IGROV1 ovarian
# K-562 leukemia = test system: K-562 leukemia
# KM12 colon = test system: KM12 colon
# LOX IMVI melanoma = test system: LOX IMVI melanoma
# M14 melanoma = test system: M14 melanoma
# MALME-3M melanoma = test system: MALME-3M melanoma
# MCF7 breast = test system: MCF7 breast
# MDA-MB-231 breast = test system: MDA-MB-231 breast
# MDA-MB-435 = test system: MDA-MB-435
# MOLT-4 leukemia = test system: MOLT-4 leukemia
# NCI-H226 lung = test system: NCI-H226 lung
# NCI-H23 lung = test system: NCI-H23 lung
# NCI-H460 lung = test system: NCI-H460 lung
# NCI-H522 lung = test system: NCI-H522 lung
# NCI/ADR-RES ovarian = test system: NCI/ADR-RES ovarian
# OVCAR-3 ovarian = test system: OVCAR-3 ovarian
# OVCAR-4 ovarian = test system: OVCAR-4 ovarian
# OVCAR-5 ovarian = test system: OVCAR-5 ovarian
# OVCAR-8 ovarian = test system: OVCAR-8 ovarian
# PC-3 prostate = test system: PC-3 prostate
# RPMI-8226 leukemia = test system: RPMI-8226 leukemia
# RXF 393 renal = test system: RXF 393 renal
# SF-268 CNS = test system: SF-268 CNS
# SF-295 CNS = test system: SF-295 CNS
# SF-539 CNS = test system: SF-539 CNS
# SK-MEL-2 melanoma = test system: SK-MEL-2 melanoma
# SK-MEL-28 melanoma = test system: SK-MEL-28 melanoma
# SK-MEL-5 melanoma = test system: SK-MEL-5 melanoma
# SK-OV-3 ovarian = test system: SK-OV-3 ovarian
# SN12C renal = test system: SN12C renal
# SNB-19 CNS = test system: SNB-19 CNS
# SNB-75 CNS = test system: SNB-75 CNS
# SR leukemia = test system: SR leukemia
# SW-620 colon = test system: SW-620 colon
# T-47D breast = test system: T-47D breast
# TK-10 renal = test system: TK-10 renal
# U251 CNS = test system: U251 CNS
# UACC-257 melanoma = test system: UACC-257 melanoma
# UACC-62 melanoma = test system: UACC-62 melanoma
# UO-31 renal = test system: UO-31 renal
smiles,measurement,setting,value
C=CCCCOC1[C@H](OCc2ccccc2)C(OCc2ccccc2)C(OC)O[C@@H]1CNC(=O)c1cccc(I)c1 (stereo partly specified),GI50,786-0 renal,3.78 µM
same,TGI,786-0 renal,> 100 µM
same,GI50,A498 renal,7.2 µM
same,TGI,A498 renal,72.8 µM
same,GI50,A549 NSCLC,8.17 µM
same,TGI,A549 NSCLC,> 100 µM
same,GI50,ACHN renal,5.76 µM
same,TGI,ACHN renal,> 100 µM
same,GI50,BT-549 breast,8.79 µM
same,TGI,BT-549 breast,> 100 µM
same,GI50,CAKI-1 renal,11.5 µM
same,TGI,CAKI-1 renal,> 100 µM
same,GI50,CCRF-CEM leukemia,3.55 µM
same,TGI,CCRF-CEM leukemia,> 100 µM
same,GI50,COLO 205 colon,5.02 µM
same,TGI,COLO 205 colon,> 100 µM
same,GI50,DU-145 prostate,8.52 µM
same,TGI,DU-145 prostate,> 100 µM
same,GI50,EKVX NSCLC,3.2 µM
same,TGI,EKVX NSCLC,> 100 µM
same,GI50,HCC-2998 colon,> 100 µM
same,TGI,HCC-2998 colon,> 100 µM
same,GI50,HCT-116 colon,4.3 µM
same,TGI,HCT-116 colon,> 100 µM
same,GI50,HCT-15 colon,3.55 µM
same,TGI,HCT-15 colon,> 100 µM
same,GI50,HL-60(TB) leukemia,2.83 µM
same,TGI,HL-60(TB) leukemia,21.3 µM
same,GI50,HOP-62 NSCLC,> 100 µM
same,TGI,HOP-62 NSCLC,> 100 µM
same,GI50,HOP-92 NSCLC,5.08 µM
same,TGI,HOP-92 NSCLC,> 100 µM
same,GI50,HS 578T breast,9.32 µM
same,TGI,HS 578T breast,> 100 µM
same,GI50,HT29 colon,4.54 µM
same,TGI,HT29 colon,> 100 µM
same,GI50,IGROV1 ovarian,17.7 µM
same,TGI,IGROV1 ovarian,> 100 µM
same,GI50,K-562 leukemia,2.7 µM
same,TGI,K-562 leukemia,> 100 µM
same,GI50,KM12 colon,6.49 µM
same,TGI,KM12 colon,> 100 µM
same,GI50,LOX IMVI melanoma,2.81 µM
same,TGI,LOX IMVI melanoma,> 100 µM
same,GI50,M14 melanoma,60.2 µM
same,TGI,M14 melanoma,> 100 µM
same,GI50,MALME-3M melanoma,5.43 µM
same,TGI,MALME-3M melanoma,> 100 µM
same,GI50,MCF7 breast,3.5 µM
same,TGI,MCF7 breast,> 100 µM
same,GI50,MDA-MB-231 breast,8.34 µM
same,TGI,MDA-MB-231 breast,> 100 µM
same,GI50,MDA-MB-435,5.31 µM
same,TGI,MDA-MB-435,> 100 µM
same,GI50,MOLT-4 leukemia,1.9 µM
same,TGI,MOLT-4 leukemia,> 100 µM
same,GI50,NCI-H226 lung,21.9 µM
same,TGI,NCI-H226 lung,> 100 µM
same,GI50,NCI-H23 lung,33.6 µM
same,TGI,NCI-H23 lung,> 100 µM
same,GI50,NCI-H460 lung,2.91 µM
same,TGI,NCI-H460 lung,8.64 µM
same,GI50,NCI-H522 lung,33 µM
same,TGI,NCI-H522 lung,> 100 µM
same,GI50,NCI/ADR-RES ovarian,5.26 µM
same,TGI,NCI/ADR-RES ovarian,> 100 µM
same,GI50,OVCAR-3 ovarian,6.46 µM
same,TGI,OVCAR-3 ovarian,> 100 µM
same,GI50,OVCAR-4 ovarian,14.4 µM
same,TGI,OVCAR-4 ovarian,> 100 µM
same,GI50,OVCAR-5 ovarian,> 100 µM
same,TGI,OVCAR-5 ovarian,> 100 µM
same,GI50,OVCAR-8 ovarian,26 µM
same,TGI,OVCAR-8 ovarian,> 100 µM
same,GI50,PC-3 prostate,2.19 µM
same,TGI,PC-3 prostate,> 100 µM
same,GI50,RPMI-8226 leukemia,2.57 µM
same,TGI,RPMI-8226 leukemia,9.19 µM
same,GI50,RXF 393 renal,3.91 µM
same,TGI,RXF 393 renal,> 100 µM
same,GI50,SF-268 CNS,5.38 µM
same,TGI,SF-268 CNS,> 100 µM
same,GI50,SF-295 CNS,4.14 µM
same,TGI,SF-295 CNS,> 100 µM
same,GI50,SF-539 CNS,4.38 µM
same,TGI,SF-539 CNS,76.4 µM
same,GI50,SK-MEL-2 melanoma,48.1 µM
same,TGI,SK-MEL-2 melanoma,> 100 µM
same,GI50,SK-MEL-28 melanoma,8.51 µM
same,TGI,SK-MEL-28 melanoma,> 100 µM
same,GI50,SK-MEL-5 melanoma,2.2 µM
same,TGI,SK-MEL-5 melanoma,16.2 µM
same,GI50,SK-OV-3 ovarian,5.45 µM
same,TGI,SK-OV-3 ovarian,> 100 µM
same,GI50,SN12C renal,8.53 µM
same,TGI,SN12C renal,> 100 µM
same,GI50,SNB-19 CNS,6.35 µM
same,TGI,SNB-19 CNS,> 100 µM
same,GI50,SNB-75 CNS,3.91 µM
same,TGI,SNB-75 CNS,56.5 µM
same,GI50,SR leukemia,2.9 µM
same,TGI,SR leukemia,14.6 µM
same,GI50,SW-620 colon,4.62 µM
same,TGI,SW-620 colon,> 100 µM
same,GI50,T-47D breast,4.74 µM
same,TGI,T-47D breast,> 100 µM
same,GI50,TK-10 renal,5.3 µM
same,TGI,TK-10 renal,> 100 µM
same,GI50,U251 CNS,4.66 µM
same,TGI,U251 CNS,> 100 µM
same,GI50,UACC-257 melanoma,8.82 µM
same,TGI,UACC-257 melanoma,> 100 µM
same,GI50,UACC-62 melanoma,3.8 µM
same,TGI,UACC-62 melanoma,> 100 µM
same,GI50,UO-31 renal,9.51 µM
same,TGI,UO-31 renal,> 100 µM
